Where a name gives a salt, the structure may show the parent alone.
Experiments:
EC219 cells = assay: Extracellular release of the γ-secretase inhibitor from prodrugs by EC219 endothelial cells; format: in vitro ADME, rat; settings: HEK293, 215/F2, HK2 and EC219 cells, 20 μM in PBS, 19 h
Procedure: FIG. 2A. Extracellular release of amine-SecrI (11a) metabolites for α-Glu- and γ-Glu-secretase inhibitor prodrugs. The prodrugs were added to the cells for 19 h, then the supernatants were harvested and analyzed for SecrI (8), amine-SecrI (11a), the prodrugs 13a, 13b, 15a, 15b and (for 13a, 15a) also the correponding deacetylated metabolites.
Cpd added: 20 μM in PBS, 19 h incubation. SecrI (8) is stable when added to cells for 19 h; free SecrI (8) was never detected from any prodrug.
The preparation and characterization of rat brain-derived EC219 endothelial cells have been described in Juillerat-Jeanneret, L. et al. In Vitro Cell. Dev. Biol. 1992, 28A, 537-543. These cells express high levels of APA and γ-GT activities and can be used for determining kinetics in living cells, and were chosen as APA- and γ-GT-positive representative cell models. EC219 cells were grown in DMEM medium containing 1 g/l glucose, 10% heat-inactivated fetal calf serum (FCS, EuroClone, UK) supplemented with 100 U/mL penicillin and 100 μg/mL streptomycin (P/S) on uncoated cell culture plastic ware. The HEK293 and HK2 human kidney cells are available from the ATCC (American Tissue Culture Collection, Manassas, Va., USA). HEK293 cells were grown on uncoated cell culture plastic ware in Iscove modified Dulbecco medium (IMDM, Life Technologies) containing 10% FCS and P/S. HK2 cells were grown on uncoated cell culture plastic ware in DMEM/F-12 GlutaMAX medium (Gibco) containing 5% FCS, P/S, 1% ITS (1.0 mg/ml bovine insulin, 0.55 mg/ml human transferrin and 0.5 μg/ml sodium selenite, Sigma-Aldrich) and 5 ng/ml hydrocortisone. […] Then 75 μl of supernatant from each well was removed and the luciferase activity was determined by adding 25 μl of Steady-Glo luciferase assay reagent (Promega).
A first screen of the different γ-secretase prodrugs was performed in vitro to determine the cleavage rate of each compound and ex-vivo in mouse kidney tissues. Extracellular release of the γ-secretase inhibitor from prodrugs by human kidney cells (HEK293, HEK293-derived Notch-reporter 215/F2 cells28,39 and HK2 cells) as well as the rat brain-derived EC219 endothelial cells which express very high levels of APA and γ-GT activities were evaluated for liberating active inhibitors SecrI (8) or amine-SecrI (11a) (FIG. 2A).
All samples were analyzed using protein precipitation followed by LC-MS/MS analysis. […] One μL of the supernatant was analyzed by LC/MS. […]

[1] = biological target: Notch signal transduction pathway; assay: In vitro Notch signal transduction pathway activity assay (DR215/F2 luciferase reporter); format: cell-based, human
Procedure: The compounds were dissolved in dimethyl sulfoxide (DMSO) at 10 mM stock solution, aliquoted and stored at −4° C. until use, then diluted in PBS or cell culture medium. In the experimental settings, controls containing increasing concentrations of DMSO, corresponding to the amount of DMSO of the diluted compounds were always included. For in vivo experiments, the compounds were dissolved in 0.9% NaCl, incubated 30 min at 40° C. and sonicated for 5 min.
The requirement of proteolytic activation of the prodrugs to inhibit Notch cleavage by the γ-secretase, was investigated using a reporter assay (Table 3). The DR215/F2 cell line expresses a reporter construct designed to monitor the activity of the Notch signal transduction pathway. The DR215/F2 cell line 39 carries two transgenes: the firefly luciferase reporter gene expressed under the control of the Gal4 promoter and the human Notch1 activator gene fused with the yeast Gal4 transcription factor. This assay confirmed that the prodrugs were able to inhibit γ-secretase and the activation of the Notch pathway. The DR215/F2 cell reporter assay was also used to determine the IC50 for blockade of the Notch pathway by all the compounds designed and prepared.
The values were determined using the 215/F2 reporter cell line for Notch activation by the γ-secretase. All values are the mean of at least 3 experiments.
The preparation and characterization of rat brain-derived EC219 endothelial cells have been described in Juillerat-Jeanneret, L. et al. In Vitro Cell. Dev. Biol. 1992, 28A, 537-543. These cells express high levels of APA and γ-GT activities and can be used for determining kinetics in living cells, and were chosen as APA- and γ-GT-positive representative cell models. EC219 cells were grown in DMEM medium containing 1 g/l glucose, 10% heat-inactivated fetal calf serum (FCS, EuroClone, UK) supplemented with 100 U/mL penicillin and 100 μg/mL streptomycin (P/S) on uncoated cell culture plastic ware. The HEK293 and HK2 human kidney cells are available from the ATCC (American Tissue Culture Collection, Manassas, Va., USA). HEK293 cells were grown on uncoated cell culture plastic ware in Iscove modified Dulbecco medium (IMDM, Life Technologies) containing 10% FCS and P/S. HK2 cells were grown on uncoated cell culture plastic ware in DMEM/F-12 GlutaMAX medium (Gibco) containing 5% FCS, P/S, 1% ITS (1.0 mg/ml bovine insulin, 0.55 mg/ml human transferrin and 0.5 μg/ml sodium selenite, Sigma-Aldrich) and 5 ng/ml hydrocortisone. The human HEK293-derived DR215/F2 embryonic kidney cell line, stably transfected with pFR Luc and APP-Notch Gal (plasmid DR215) as described in WO 2006/061136 A2 and Brockhaus, M. Neuroreport 1998 9, 1481-1486, were maintained using IMDM with 10% FCS supplemented with P/S and kept under double-selection with 150 μg/ml G-418 and 50 μg/ml hygromycin B on coated (1:100 Poly-L-lysine) cell culture plastic ware. In this assay, the Notch-Gal4 protein is bound to the cell membrane via its trans-membrane domain. The Notch intracellular domain is released by proteolytic cleavage mediated by the γ-secretase and moves to the cell nucleus where it activates the reporter luciferase gene transcript. Inhibition of γ-secretase thus decreases luciferase activity. Briefly, cultures were grown in 96-well microplates to 80% confluence; the cells were then washed in PBS and exposed to decreasing concentrations of the γ-secretase-inhibitor analogues in complete IMDM culture medium without red phenol at 37° C. for 19 h. Then 75 μl of supernatant from each well was removed and the luciferase activity was determined by adding 25 μl of Steady-Glo luciferase assay reagent (Promega).

γ-secretase = γ-secretase (Homo sapiens, UniProt P49768); assay: In vitro γ-secretase activity assay (cell-free); format: biochemical; settings: HEK293 membrane fraction, recombinant APP substrate, Abeta ELISA
Procedure: The γ-secretase activity of the γ-secretase inhibiting alcohols of formula (A) of present invention was determined in cell-free in vitro assays where e.g., a cell lysate containing the γ-secretase complex is incubated with a suitable β-Amyloid Precursor Protein (APP)-derived substrate which is cleaved to the Abeta peptides. The amount of produced peptides can be determined with specific ELISA assays. Cell lines of neuronal origin secrete Abeta peptides which can be measured with the specific ELISA assay. Treatment with compounds which inhibit γ-secretase leads to a reduction of secreted Abeta thus providing a measure of inhibition.
The in vitro assay of γ-secretase activity uses a HEK293 membrane fraction as a source of γ-secretase and a recombinant APP substrate. Latter consist of the C-terminal 100 amino acids of human APP fused to a 6×Histidin tail for purification which is expressed in E. coli in a regulatable expression vector, e.g. pEt15. This recombinant protein corresponds to the truncated APP fragment which results after […] of the extracellular domain and which constitutes the γ-secretase substrate. […] The Abeta peptides which are produced by γ-secretase cleavage of the substrate are detected by specific ELISA assays as described (Brockhaus M et al, Neuroreport 9(7), 1481-1486 (1998).

SMILES | hydrolysis by γ-GT (EC219 cells) | IC50 for blockade of the Notch pathway, range in words ([1]; DR215/F2 cell reporter assay) | IC50 ([1]; Homo sapiens, 215/F2 reporter cell line, 19 h, mean of at least 3 experiments) | IC50 (γ-secretase)
C[C@H]1Oc2ccc(F)cc2N(CCOC(=O)NCCNC(=O)CC[C@H](N)C(=O)O)C(=O)[C@H]1NC(=O)[C@@](C)(O)C(=O)NCC(F)(F)C(F)(F)F [Compound 13b, (S)-2-Amino-5-(2-((2-((2R,3S)-7-fluoro-3-((S)-2-hydroxy-2-methyl-3-oxo-3-(2,2,3,3,3-pentafluoropropylamino)propanamido)-2-methyl-4-oxo-3,4-dihydrobenzo[b][1,4]oxazepin-5(2H)-yl)ethoxy)carbonylamino)ethylamino)-5-oxopentanoic acid hydrochloride] | also not hydrolyzed by γ-GT | μM range | 1090 nM | –
C[C@H]1Oc2ccc(F)cc2N(CCO)C(=O)[C@H]1NC(=O)C(C)(C)C(=O)NCC(F)(F)C(F)(F)F [Example 53, N-[(6R,7S)-2-Fluoro-9-(2-hydroxy-ethyl)-6-methyl-8-oxo-6,7,8,9-tetrahydro-5-oxa-9-aza-benzocyclohepten-7-yl]-2,2-dimethyl-N′-(2,2,3,3,3-pentafluoro-propyl)-malonamide] | – | – | – | 90 nM
